From patent US7820803B2, “Immobilized phosphatidic acid probe” (priority 2000, dated 2010)

Assays:
[1] = target: T1, α-tocopherol-transfer protein (ATTP) (Homo sapiens, UniProt P49638); test: Recombinant protein binding to derivatised beads: inhibition by free phosphoinositides (FIG. 11); conditions: all lipids at one concentration, relative affinity
T1 construct: His (N); made in house; host or cells: E. coli
T1 sequence (P49638 1-278): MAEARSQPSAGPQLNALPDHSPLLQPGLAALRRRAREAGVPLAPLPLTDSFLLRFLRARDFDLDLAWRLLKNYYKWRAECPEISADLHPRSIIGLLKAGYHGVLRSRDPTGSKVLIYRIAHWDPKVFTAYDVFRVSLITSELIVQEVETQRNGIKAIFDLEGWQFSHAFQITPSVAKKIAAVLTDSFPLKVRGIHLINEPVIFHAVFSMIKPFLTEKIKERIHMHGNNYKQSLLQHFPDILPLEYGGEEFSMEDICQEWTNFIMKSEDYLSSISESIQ
Source text: (§1) FIG. 11. Protein binding to derivatised beads: inhibition by free phosphoinositides. Recombinant proteins (in Cos cell lysates or expressed and purified) were bound to PtdIns(3,4,5)P3 or PtdIns(3,4)P2 beads in the presence of various free phosphoinositides (for details, see Methods). For PIP3-E, a full length construct was expressed in Cos cells while a truncated version (residues 40-437) was purified from E.Coli. […] Unless otherwise indicated, the first lane was loaded with a sample equivalent to 1% (Cos cell lysates) or 10% (purified recombinant proteins) of the protein sample that was incubated with beads. As appropriate, tagged proteins were detected with antibodies (anti-myc, anti-GFP, anti-HIS, or anti-EE; see Methods) or by silver-staining (PIP3-G/H-EE, EE-myosin 1F, GST-cytohesin-4, DAPP1, PIP3-E, MEG-2 and CDC42-GAP). For each protein, the data shown are representative of information collected in 4 independent experiments. […]
(§2) Samples of the supernatants were diluted up to 4-fold in lysis buffer, depending on expression levels, and mixed with indicated concentrations of phosphoinositide in 1 ml (FIG. 11) for 10 min on ice. […] Proteins were eluted with SDS sample buffer, separated by SDS-PAGE and detected by immunoblotting [anti-myc (monoclonal 9E10) or anti-GFP (rabbit polyclonal): Clontech). […]

[2] = Solubility of ω-amino phosphatidic acid in solvents; assay type: physicochemical; conditions: in a range of solvents; chloroform-methanol-water needed
Protocol: The immobilised PA [1] was prepared by coupling of the ω-amino phosphatidic acid (−), which was synthesised in 7 steps starting from the optically pure protected glycerol derivative (−), with the N-hydroxysuccinimide (NHS) activated ester agarose resin, Affi-Gel 10, as is depicted in Scheme 1. […] Excess resin (ca. 5 equiv. of NHS-groups) was used, resulting in a loading of 80% [2] onto the beads, as determined by the quantification of recovered by 1H-NMR in the presence of an internal standard.
Finally, the PA amine 33 and PtdIns(4,5)P2 amine 34 were coupled to the N-hydroxysuccinimide (NHS)-activated ester resin, Affi-Gel 10, to afford the corresponding affinity matrices 31 and 32. The PtdIns(4,5)P2 modified matrix was prepared in water using excess NaHCO3, by reacting the activated Affi Gel 10 [resin […] (4 mL)] with the amine 34 ([…]) to give a loading of 4.5 mmol as judged from the recovery of the amino phospholipid 34, that was quantified by 500 MHz ^1H-NMR spectroscopy in the presence of myo-inositol orthoformate 43 as the internal standard.

SR1 = target: T2, SR1 (Homo sapiens, UniProt Q8IWB7); test: Recombinant protein binding to derivatised beads: inhibition by free phosphoinositides (FIG. 11); conditions: all lipids at one concentration, relative affinity
T2 construct: Multiple overlapping clones allowed prediction of full-length human ORFs for each protein; EE (N); made in house; host or cells: Sf9 (baculovirus)
T2 sequence (Q8IWB7 1-410): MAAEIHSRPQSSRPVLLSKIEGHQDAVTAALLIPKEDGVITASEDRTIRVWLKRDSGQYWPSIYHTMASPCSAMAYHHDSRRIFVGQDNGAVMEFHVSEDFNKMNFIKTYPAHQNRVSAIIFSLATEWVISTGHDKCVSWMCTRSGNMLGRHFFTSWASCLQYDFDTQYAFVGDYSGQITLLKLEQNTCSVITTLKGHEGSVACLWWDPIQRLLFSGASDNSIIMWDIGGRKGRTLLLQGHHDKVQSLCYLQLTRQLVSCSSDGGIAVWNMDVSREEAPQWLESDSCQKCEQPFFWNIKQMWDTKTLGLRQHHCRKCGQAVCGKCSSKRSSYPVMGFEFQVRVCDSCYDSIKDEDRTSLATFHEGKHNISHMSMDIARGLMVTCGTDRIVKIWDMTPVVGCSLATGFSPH
Source text: as §1, §2

SR3 = target: T3, SR3 (Homo sapiens, UniProt Q9HBF4); test: as above; conditions: all lipids at one concentration, relative affinity
T3 construct: Multiple overlapping clones allowed prediction of full-length human ORFs for each protein; EE (N); made in house; host or cells: Sf9 (baculovirus)
T3 sequence (Q9HBF4 1-777): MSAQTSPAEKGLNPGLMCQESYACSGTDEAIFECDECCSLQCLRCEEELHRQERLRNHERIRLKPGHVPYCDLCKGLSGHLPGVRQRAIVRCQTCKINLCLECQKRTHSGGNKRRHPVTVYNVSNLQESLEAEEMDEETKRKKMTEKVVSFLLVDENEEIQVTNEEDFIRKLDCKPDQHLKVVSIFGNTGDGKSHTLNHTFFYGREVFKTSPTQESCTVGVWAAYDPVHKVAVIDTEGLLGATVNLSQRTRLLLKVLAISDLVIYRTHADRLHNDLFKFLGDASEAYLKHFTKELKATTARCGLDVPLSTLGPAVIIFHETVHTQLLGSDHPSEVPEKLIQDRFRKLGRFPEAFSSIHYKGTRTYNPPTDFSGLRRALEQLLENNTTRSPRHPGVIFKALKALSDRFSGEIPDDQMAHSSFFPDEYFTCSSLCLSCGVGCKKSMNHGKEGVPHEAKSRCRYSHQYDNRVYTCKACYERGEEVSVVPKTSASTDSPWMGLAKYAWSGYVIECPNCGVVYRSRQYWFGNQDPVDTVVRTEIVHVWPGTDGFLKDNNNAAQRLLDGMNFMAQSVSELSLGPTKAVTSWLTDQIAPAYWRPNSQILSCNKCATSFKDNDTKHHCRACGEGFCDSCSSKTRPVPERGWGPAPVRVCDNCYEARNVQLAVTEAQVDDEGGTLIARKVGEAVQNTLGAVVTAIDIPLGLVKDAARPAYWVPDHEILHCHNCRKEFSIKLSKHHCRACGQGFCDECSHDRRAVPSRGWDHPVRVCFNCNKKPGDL
Source text: as §1, §2

CCCCCCCCCCCCCCCC(=O)OC[C@H](COP(=O)(O)O[C@H]1[C@H](O)[C@@H](OP(=O)(O)O)[C@H](O)[C@@H](O)[C@H]1O)OC(=O)CCCCCCCCCCCCCCC [PtdIns5P]
displacement of ATTP from PtdIns(3,4)P2 beads by free phosphoinositide [1]: displaced most effectively

CCCCCCCCCCCCCCCC(=O)O[C@H](COC(=O)CCCCCCCCCCCN)COP(=O)(O)O [[2], 1-O-(12-Amino)dodecanoyl-2-O-hexadecanoyl-sn-glycer-3-ylphosphate]
solubility [2]: poor solubility

CCCCCCCCCCCCCCCC(=O)OC[C@H](COP(=O)(O)OC1[C@H](O)[C@H](O)C(OP(=O)(O)O)[C@H](O)[C@H]1O)OC(=O)CCCCCCCCCCCCCCC (some centres unmarked) [PtdIns4P]
displacement of ATTP from PtdIns(3,4)P2 beads by free phosphoinositide [1]: displaced most effectively

CCCCCCCCCCCCCCCC(=O)OC[C@H](COP(=O)(O)O[C@@H]1[C@H](O)[C@H](OP(=O)(O)O)[C@@H](O)[C@H](O)[C@H]1O)OC(=O)CCCCCCCCCCCCCCC [PtdIns3P]
displacement of SR1 from PtdIns(3,4)P2 beads by free phosphoinositide (SR1): most effectively
displacement of SR3 from PtdIns(3,4)P2 beads by free phosphoinositide (SR3): most effectively
